Reference: PubChem BioAssay (NCI)
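Briefly, cells in 96-well plates were exposed to five compound concentrations for 48 h, and endpoints were estimated by linear interpolation. At the TGI there is no net growth.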

Assays:
Assay in all cases: inhibition of tumour cell growth, NCI panel, 48 h
786-0 renal = tested on: 786-0 renal
A498 renal = tested on: A498 renal
A549 NSCLC = tested on: A549 NSCLC
ACHN renal = tested on: ACHN renal
BT-549 breast = tested on: BT-549 breast
CAKI-1 renal = tested on: CAKI-1 renal
CCRF-CEM leukemia = tested on: CCRF-CEM leukemia
COLO 205 colon = tested on: COLO 205 colon
EKVX NSCLC = tested on: EKVX NSCLC
HCC-2998 colon = tested on: HCC-2998 colon
HCT-116 colon = tested on: HCT-116 colon
HCT-15 colon = tested on: HCT-15 colon
HL-60(TB) leukemia = tested on: HL-60(TB) leukemia
HOP-62 NSCLC = tested on: HOP-62 NSCLC
HT29 colon = tested on: HT29 colon
IGROV1 ovarian = tested on: IGROV1 ovarian
K-562 leukemia = tested on: K-562 leukemia
KM12 colon = tested on: KM12 colon
LOX IMVI melanoma = tested on: LOX IMVI melanoma
M14 melanoma = tested on: M14 melanoma
MALME-3M melanoma = tested on: MALME-3M melanoma
MCF7 breast = tested on: MCF7 breast
MDA-MB-231 breast = tested on: MDA-MB-231 breast
MDA-MB-435 = tested on: MDA-MB-435
MDA-N = tested on: MDA-N
MOLT-4 leukemia = tested on: MOLT-4 leukemia
NCI-H226 lung = tested on: NCI-H226 lung
NCI-H23 lung = tested on: NCI-H23 lung
NCI-H522 lung = tested on: NCI-H522 lung
NCI/ADR-RES ovarian = tested on: NCI/ADR-RES ovarian
OVCAR-3 ovarian = tested on: OVCAR-3 ovarian
OVCAR-4 ovarian = tested on: OVCAR-4 ovarian
OVCAR-5 ovarian = tested on: OVCAR-5 ovarian
OVCAR-8 ovarian = tested on: OVCAR-8 ovarian
PC-3 prostate = tested on: PC-3 prostate
RPMI-8226 leukemia = tested on: RPMI-8226 leukemia
SF-295 CNS = tested on: SF-295 CNS
SF-539 CNS = tested on: SF-539 CNS
SK-MEL-2 melanoma = tested on: SK-MEL-2 melanoma
SK-MEL-28 melanoma = tested on: SK-MEL-28 melanoma
SK-MEL-5 melanoma = tested on: SK-MEL-5 melanoma
SK-OV-3 ovarian = tested on: SK-OV-3 ovarian
SN12C renal = tested on: SN12C renal
SNB-75 CNS = tested on: SNB-75 CNS
SR leukemia = tested on: SR leukemia
SW-620 colon = tested on: SW-620 colon
T-47D breast = tested on: T-47D breast
TK-10 renal = tested on: TK-10 renal
U251 CNS = tested on: U251 CNS
UACC-257 melanoma = tested on: UACC-257 melanoma
UACC-62 melanoma = tested on: UACC-62 melanoma
UO-31 renal = tested on: UO-31 renal
DU-145 prostate = tested on: DU-145 prostate
NCI-H460 lung = tested on: NCI-H460 lung
RXF 393 renal = tested on: RXF 393 renal
SF-268 CNS = tested on: SF-268 CNS
SNB-19 CNS = tested on: SNB-19 CNS

O=C(O)c1ccccc1SCc1cccc2c(=O)c3ccc(Cl)cc3oc12
TGI (786-0 renal): > 50 µM
TGI (A498 renal): > 50 µM
TGI (A549 NSCLC): > 50 µM
TGI (ACHN renal): > 50 µM
TGI (BT-549 breast): > 50 µM
TGI (CAKI-1 renal): > 50 µM
TGI (CCRF-CEM leukemia): > 50 µM
TGI (COLO 205 colon): > 50 µM
TGI (EKVX NSCLC): > 50 µM
TGI (HCC-2998 colon): > 50 µM
TGI (HCT-116 colon): > 50 µM
TGI (HCT-15 colon): > 50 µM
TGI (HL-60(TB) leukemia): 27.7 µM
TGI (HOP-62 NSCLC): 47.3 µM
TGI (HT29 colon): > 50 µM
TGI (IGROV1 ovarian): > 50 µM
TGI (K-562 leukemia): > 50 µM
TGI (KM12 colon): > 50 µM
TGI (LOX IMVI melanoma): > 50 µM
TGI (M14 melanoma): > 50 µM
TGI (MALME-3M melanoma): 44.9 µM
TGI (MCF7 breast): > 50 µM
TGI (MDA-MB-231 breast): > 50 µM
TGI (MDA-MB-435): > 50 µM
TGI (MDA-N): > 50 µM
TGI (MOLT-4 leukemia): > 50 µM
TGI (NCI-H226 lung): > 50 µM
TGI (NCI-H23 lung): > 50 µM
TGI (NCI-H522 lung): > 50 µM
TGI (NCI/ADR-RES ovarian): > 50 µM
TGI (OVCAR-3 ovarian): > 50 µM
TGI (OVCAR-4 ovarian): > 50 µM
TGI (OVCAR-5 ovarian): > 50 µM
TGI (OVCAR-8 ovarian): > 50 µM
TGI (PC-3 prostate): > 50 µM
TGI (RPMI-8226 leukemia): > 50 µM
TGI (SF-295 CNS): > 50 µM
TGI (SF-539 CNS): > 50 µM
TGI (SK-MEL-2 melanoma): > 50 µM
TGI (SK-MEL-28 melanoma): > 50 µM
TGI (SK-MEL-5 melanoma): > 50 µM
TGI (SK-OV-3 ovarian): > 50 µM
TGI (SN12C renal): > 50 µM
TGI (SNB-75 CNS): > 50 µM
TGI (SR leukemia): > 50 µM
TGI (SW-620 colon): > 50 µM
TGI (T-47D breast): > 50 µM
TGI (TK-10 renal): > 50 µM
TGI (U251 CNS): > 50 µM
TGI (UACC-257 melanoma): > 50 µM
TGI (UACC-62 melanoma): > 50 µM
TGI (UO-31 renal): > 50 µM

O=c1oc2ccccc2c(O)c1/C=N/C(=S)Nc1ccccc1
TGI (A498 renal): > 100 µM
TGI (A549 NSCLC): > 100 µM
TGI (ACHN renal): > 100 µM
TGI (CCRF-CEM leukemia): > 100 µM
TGI (COLO 205 colon): > 100 µM
TGI (DU-145 prostate): > 100 µM
TGI (EKVX NSCLC): > 100 µM
TGI (HCC-2998 colon): > 100 µM
TGI (HCT-116 colon): > 100 µM
TGI (HCT-15 colon): > 100 µM
TGI (HOP-62 NSCLC): > 100 µM
TGI (K-562 leukemia): > 100 µM
TGI (KM12 colon): > 100 µM
TGI (LOX IMVI melanoma): > 100 µM
TGI (M14 melanoma): > 100 µM
TGI (MDA-MB-231 breast): > 100 µM
TGI (MDA-N): > 100 µM
TGI (MOLT-4 leukemia): > 100 µM
TGI (NCI-H226 lung): > 100 µM
TGI (NCI-H23 lung): > 100 µM
TGI (NCI-H460 lung): > 100 µM
TGI (NCI-H522 lung): > 100 µM
TGI (NCI/ADR-RES ovarian): > 100 µM
TGI (OVCAR-3 ovarian): > 100 µM
TGI (OVCAR-4 ovarian): > 100 µM
TGI (OVCAR-5 ovarian): > 100 µM
TGI (OVCAR-8 ovarian): > 100 µM
TGI (PC-3 prostate): > 100 µM
TGI (RXF 393 renal): 833 nM
TGI (SF-268 CNS): > 100 µM
TGI (SF-295 CNS): > 100 µM
TGI (SF-539 CNS): > 100 µM
TGI (SK-MEL-2 melanoma): 94.7 µM
TGI (SK-MEL-28 melanoma): > 100 µM
TGI (SK-MEL-5 melanoma): > 100 µM
TGI (SN12C renal): > 100 µM
TGI (SNB-75 CNS): 97.8 µM
TGI (T-47D breast): > 100 µM
TGI (UACC-257 melanoma): > 100 µM
TGI (UACC-62 melanoma): > 100 µM

N#CCCC1(CCC#N)CCc2ccccc2C1=O
TGI (786-0 renal): > 100 µM
TGI (ACHN renal): > 100 µM
TGI (CAKI-1 renal): > 100 µM
TGI (CCRF-CEM leukemia): > 100 µM
TGI (DU-145 prostate): > 100 µM
TGI (EKVX NSCLC): > 100 µM
TGI (HCC-2998 colon): > 100 µM
TGI (HCT-116 colon): > 100 µM
TGI (HCT-15 colon): > 100 µM
TGI (HL-60(TB) leukemia): > 100 µM
TGI (HOP-62 NSCLC): > 100 µM
TGI (HT29 colon): > 100 µM
TGI (IGROV1 ovarian): > 100 µM
TGI (K-562 leukemia): > 100 µM
TGI (KM12 colon): > 100 µM
TGI (LOX IMVI melanoma): > 100 µM
TGI (M14 melanoma): > 100 µM
TGI (MALME-3M melanoma): > 100 µM
TGI (MCF7 breast): > 100 µM
TGI (MDA-MB-231 breast): > 100 µM
TGI (MDA-MB-435): > 100 µM
TGI (MDA-N): > 100 µM
TGI (MOLT-4 leukemia): > 100 µM
TGI (NCI-H226 lung): > 100 µM
TGI (NCI-H23 lung): > 100 µM
TGI (NCI-H460 lung): > 100 µM
TGI (NCI-H522 lung): > 100 µM
TGI (NCI/ADR-RES ovarian): > 100 µM
TGI (OVCAR-3 ovarian): > 100 µM
TGI (OVCAR-4 ovarian): > 100 µM
TGI (OVCAR-5 ovarian): > 100 µM
TGI (OVCAR-8 ovarian): > 100 µM
TGI (PC-3 prostate): > 100 µM
TGI (RPMI-8226 leukemia): > 100 µM
TGI (SF-268 CNS): > 100 µM
TGI (SF-539 CNS): > 100 µM
TGI (SK-MEL-2 melanoma): > 100 µM
TGI (SK-MEL-28 melanoma): > 100 µM
TGI (SK-MEL-5 melanoma): > 100 µM
TGI (SK-OV-3 ovarian): > 100 µM
TGI (SN12C renal): > 100 µM
TGI (SNB-19 CNS): > 100 µM
TGI (SNB-75 CNS): > 100 µM
TGI (SR leukemia): > 100 µM
TGI (SW-620 colon): > 100 µM
TGI (T-47D breast): > 100 µM
TGI (TK-10 renal): > 100 µM
TGI (U251 CNS): > 100 µM
TGI (UACC-257 melanoma): > 100 µM
TGI (UACC-62 melanoma): > 100 µM
TGI (UO-31 renal): > 100 µM
